Measured values taken from patent US6964949B2, “Pharmaceutical compositions for promoting the growth of gram-positive bacilli and increasing the acidity in the vagina and the use thereof” (Shanghai Jiao Da Onlly Co., Ltd., priority 2000, dated 2005).

Key:
Assay type in all cases: cell-based
[1] = system: Gram-negative bacilli; assay: Experiment Example 3: 2.5% maltose or sucrose, specimen culture, Gram smear; conditions: 2.5% saccharide, 1.0% yeast extract, 1.6% xanthan gum, pH 6.2, candle jar, 37° C.
Experimental: (§1) • (1) The preparation of the compositions: Maltose and sucrose were used respectively to prepare the following composition according to the methods mentioned above: • A. 2.5% maltose, 1.0% yeast extract, 1.6% xanthan gum, pH adjusted to 6.2; • B. 2.5% sucrose, 1.0 yeast extract, 1.6% xanthan gum, pH adjusted to 6.2; • (2) The preparation of the test tubes: Compositions as prepared above were filled into the test tubes, with each tube containing 5 ml, sterilized, and kept until use for experiment. • (3) Specimen suspension: Vaginal secretion was taken from one of the patients suffering from typical bacterial vaginosis with a cotton swab, then the swab was washed in 2 ml sterilized Trypcase-soy Broth immediately, and thus the specimen suspension was ready. […] Then the tubes were placed in a candle jar and cultivated at 37° C. After 24 hours and 48 hours' culture, culture samples were taken respectively from each of the tubes, then the Gram smears of the samples were observed and the pH values of culture samples were tested.

[2] = system: Gram-negative cocci; assay: as above; conditions: 2.5% saccharide, 1.0% yeast extract, 1.6% xanthan gum, pH 6.2, candle jar, 37° C.
Experimental: as §1

[3] = system: Gram-negative bacilli; assay: Experiment Example 4: 17.0% maltose or sucrose, specimen culture, Gram smear; conditions: 17.0% saccharide, 1.0% yeast extract, 1.6% xanthan gum, pH 6.2, candle jar, 37° C.
Experimental: as §1, with “• (1)The” for “• (1) The”, “composition in” for “composition according to”, “A. 17.0%” for “A. 2.5%”, “B. 17.0%” for “B. 2.5%”, “sucrose, 1.0%” for “sucrose, 1.0”, “Compositions” for “Compositions as”

[4] = system: Gram-positive cocci; assay: as above; conditions: 17.0% saccharide, 1.0% yeast extract, 1.6% xanthan gum, pH 6.2, candle jar, 37° C.
Experimental: as §1, with “• (1)The” for “• (1) The”, “composition in” for “composition according to”, “A. 17.0%” for “A. 2.5%”, “B. 17.0%” for “B. 2.5%”, “sucrose, 1.0%” for “sucrose, 1.0”, “Compositions” for “Compositions as”

[5] = system: Gram-negative cocci; assay: as above; conditions: 17.0% saccharide, 1.0% yeast extract, 1.6% xanthan gum, pH 6.2, candle jar, 37° C.
Experimental: as §1, with “• (1)The” for “• (1) The”, “composition in” for “composition according to”, “A. 17.0%” for “A. 2.5%”, “B. 17.0%” for “B. 2.5%”, “sucrose, 1.0%” for “sucrose, 1.0”, “Compositions” for “Compositions as”

[6] = system: Gram-positive bacilli; assay: as above; conditions: 17.0% saccharide, 1.0% yeast extract, 1.6% xanthan gum, pH 6.2, candle jar, 37° C.
Experimental: as §1, with “• (1)The” for “• (1) The”, “composition in” for “composition according to”, “A. 17.0%” for “A. 2.5%”, “B. 17.0%” for “B. 2.5%”, “sucrose, 1.0%” for “sucrose, 1.0”, “Compositions” for “Compositions as”

[7] = system: vaginal secretion specimen of a patient suffering from typical bacterial vaginosis; assay: Experiment Example 4: pH of culture samples (production of acids); conditions: 17.0% saccharide, 1.0% yeast extract, 1.6% xanthan gum, pH 6.2, candle jar, 37° C.
Experimental: as §1, with “• (1)The” for “• (1) The”, “composition in” for “composition according to”, “A. 17.0%” for “A. 2.5%”, “B. 17.0%” for “B. 2.5%”, “sucrose, 1.0%” for “sucrose, 1.0”, “Compositions” for “Compositions as”

[8] = system: vaginal secretion specimen of a patient suffering from typical bacterial vaginosis; assay: Experiment Example 3: pH of culture samples (production of acids); conditions: 2.5% saccharide, 1.0% yeast extract, 1.6% xanthan gum, pH 6.2, candle jar, 37° C.
Experimental: as §1

[9] = system: Gram-negative bacilli; assay: Experiment Example 2: comparison of saccharides, specimen culture, Gram smear; conditions: 10.0% saccharide, 1.0% yeast extract, 1.6% xanthan gum (dextrin 0.5%, starch none), pH 6.2, candle jar, 37° C.
From the text: (§2) • (1)The preparation of the compositions: Different saccharides were used respectively to prepare the following compositions according to the methods mentioned above: glucose, fructose, galactose, mannose, maltose, sucrose, lactose, lactulose, mycose, cellobiose, melibiose, melitose, malto-oligosaccharide, isomaltooligosaccharide and fructooligosaccharide, dextrin, starch, and glycogen: • A. 5% glucose, 1.0% yeast extract, 1.6% xanthan gum, pH adjusted to 6.2; • B. 5% fructose, 1.0% yeast extract, 1.6% xanthan gum, pH adjusted to 6.2; • C. 5% galactose, 1.0% yeast extract, 1.6% xanthan gum, pH adjusted to 6.2; • D. 5% mannose, 1.0% yeast extract, 1.6% xanthan gum, pH adjusted to 6.2; • E. 10.0% maltose, 1.0% yeast extract, 1.6% xanthan gum, pH adjusted to 6.2; • F. 10.0% sucrose, 1.0% yeast extract, 1.6% xanthan gum, pH adjusted to 6.2; • G. 10.0% lactose, 1.0% yeast extract, 1.6% xanthan gum, pH adjusted to 6.2; • H. 10.0% lactulose, 1.0% yeast extract, 1.6% xanthan gum, pH adjusted to 6.2; • I. 10.0% cellobiose, 1.0% yeast extract, 1.6% xanthan gum, pH adjusted to 6.2; • J. 10.0% mycose, 1.0% yeast extract, 1.6% xanthan gum, pH adjusted to 6.2; • K. 10.0% melibiose, 1.0% yeast extract, 1.6% xanthan gum, pH adjusted to 6.2; • L. 10.0% melitose, 1.0% yeast extract, 1.6% xanthan gum, pH adjusted to 6.2; • M. 10.0% maltooligosaccharide, 1.0% yeast extract, 1.6% xanthan gum, pH adjusted to 6.2; • N. 10.0% isomaltooligosaccharide, 1.0% yeast extract, 1.6% xanthan gum, pH adjusted to 6.2; • O. 10.0% fructooligosaccharide, 1.0% yeast extract, 1.6% xanthan gum, pH adjusted to 6.2; • P. 10.0% dextrin, 1.0% yeast extract, 0.5% xanthan gum, pH adjusted to 6.2; • Q. 10.0% starch, 1.0% yeast extract, pH adjusted to 6.2; • R. 10.0% glycogen, 1.0% yeast extract, 1.6% xanthan gum, pH adjusted to 6.2. • (2)The preparation of the test tubes: The compositions prepared above were filled into test tubes, with each tube containing 5 ml, sterilized, and kept until use for experiment. • (3) Specimen suspension: Vaginal secretion was taken from one of the patients suffering from typical bacterial vagmosis with a cotton swab, then the swab was washed in 2 ml sterilized Trypcase-soy Broth immediately, and thus the specimen suspension was ready. […] Then the tubes were placed in a candle jar and cultivated at 37° C. After 24 hours and 48 hours' culture, culture samples were taken respectively from each of the tubes, then the Gram smears of the samples were observed and the pH values of culture samples were tested. […] Meanwhile the pH values in most of the composition tubes decreased to different levels. […] And maltose and sucrose exert better effect in promoting the growth of Gram-positive bacilli and the production of acids than that of the other kinds of oligosaccharides.

[10] = system: Gram-positive cocci; assay: as above; conditions: 10.0% saccharide, 1.0% yeast extract, 1.6% xanthan gum (dextrin 0.5%, starch none), pH 6.2, candle jar, 37° C.
From the text: as §2

[11] = system: Gram-negative cocci; assay: as above; conditions: 10.0% saccharide, 1.0% yeast extract, 1.6% xanthan gum (dextrin 0.5%, starch none), pH 6.2, candle jar, 37° C.
From the text: as §2

[12] = system: Gram-positive bacilli; assay: as above; conditions: 10.0% saccharide, 1.0% yeast extract, 1.6% xanthan gum (dextrin 0.5%, starch none), pH 6.2, candle jar, 37° C.
From the text: as §2

Row | SMILES | Bacteria G − b (Gram-negative bacilli), 24 hours-culture [1] | Bacteria G − b (Gram-negative bacilli), 48 hours-culture [1] | Bacteria G − c (Gram-negative cocci), 24 hours-culture [2] | Bacteria G − c (Gram-negative cocci), 48 hours-culture [2] | Bacteria G − b (Gram-negative bacilli), 48 hours culture [3] | Bacteria G + c (Gram-positive cocci), 24 hours culture [4] | Bacteria G + c (Gram-positive cocci), 48 hours culture [4] | Bacteria G − c (Gram-negative cocci), 24 hours culture [5] | Bacteria G − c (Gram-negative cocci), 48 hours culture [5] | Bacteria G + b (Gram-positive bacilli), 24 hours culture [6] | Bacteria G + b (Gram-positive bacilli), 48 hours culture [6] | pH, 24 hours culture [7] | pH, 48 hours culture [7] | pH, 24 hours-culture [8] | pH, 48 hours-culture [8] | Bacteria G − b (Gram-negative bacilli), 24 hours-culture [9] | Bacteria G − b (Gram-negative bacilli), 48 hours-culture [9] | Bacteria G + c (Gram-positive cocci), 24 hours-culture [10] | Bacteria G + c (Gram-positive cocci), 48 hours-culture [10] | Bacteria G − c (Gram-negative cocci), 24 hours-culture [11] | further results
1 | OC[C@H]1O[C@H](O[C@H]2[C@H](O)[C@@H](O)[C@H](O)O[C@@H]2CO)[C@H](O)[C@@H](O)[C@@H]1O [Maltose, maltose] | G − b, +++ (About 100 bacteria or more per field vision under oil-immersion lens, even uncountable) | G − b, + (1-9 bacteria per field of vision under oil-immersion lens) | G − c, − (No or less than one bacterium per field of version under oil-immersion lens) | G − c, − (No or less than one bacterium per field of version under oil-immersion lens) | G − b, ++ (About 10-99 bacteria per field of vision under oil-immersion lens) | G + c, + (1-9 bacteria per field of vision under oil-immersion lens) | G + c, ++ (About 10-99 bacteria per field of vision under oil-immersion lens) | G − c, − (No or less than one bacterium per field of version under oil-immersion lens) | G − c, − (No or less than one bacterium per field of version under oil-immersion lens) | G + b, +++ (About 100 bacteria or more per field vision under oil-immersion lens, even uncountable) | G + b, ++ (About 10-99 bacteria per field of vision under oil-immersion lens) | 5.4 | 5.1 | 7.0 | 6.4 | G − b, +++ (About 100 bacteria or more per field vision under oil-immersion lens, even uncountable) | G − b, ++ (About 10-99 bacteria per field of vision under oil-immersion lens) | G + c, ++ (About 10-99 bacteria per field of vision under oil-immersion lens) | G + c, + (1-9 bacteria per field of vision under oil-immersion lens) | G − c, − (No or less than one bacterium per field of version under oil-immersion lens) | Bacteria G − b (Gram-negative bacilli), 24 hours culture ([3]; 24 hours): G − b, + (1-9 bacteria per field of vision under oil-immersion lens); Bacteria G − c (Gram-negative cocci), 48 hours-culture [11]: G − c, − (No or less than one bacterium per field of version under oil-immersion lens); Bacteria G + b (Gram-positive bacilli), 24 hours-culture ([12]; 24 hours): G + b, ++ (About 10-99 bacteria per field of vision under oil-immersion lens); Bacteria G + b (Gram-positive bacilli), 48 hours-culture [12]: G + b, +++ (About 100 bacteria or more per field vision under oil-immersion lens, even uncountable)
2 | OC[C@H]1O[C@@](CO)(O[C@H]2O[C@H](CO)[C@@H](O)[C@H](O)[C@H]2O)[C@@H](O)[C@@H]1O [Sucrose, sucrose] | G − b, + (1-9 bacteria per field of vision under oil-immersion lens) | G − b, ++ (About 10-99 bacteria per field of vision under oil-immersion lens) | G − c, − (No or less than one bacterium per field of version under oil-immersion lens) | G − c, − (No or less than one bacterium per field of version under oil-immersion lens) | G − b, ++ (About 10-99 bacteria per field of vision under oil-immersion lens) | G + c, + (1-9 bacteria per field of vision under oil-immersion lens) | G + c, ++ (About 10-99 bacteria per field of vision under oil-immersion lens) | G − c, − (No or less than one bacterium per field of version under oil-immersion lens) | G − c, − (No or less than one bacterium per field of version under oil-immersion lens) | G + b, ++ (About 10-99 bacteria per field of vision under oil-immersion lens) | G + b, ++ (About 10-99 bacteria per field of vision under oil-immersion lens) | 6.2 | 5.4 | 6.2 | 6.7 | G − b, + (1-9 bacteria per field of vision under oil-immersion lens) | G − b, ++ (About 10-99 bacteria per field of vision under oil-immersion lens) | G + c, + (1-9 bacteria per field of vision under oil-immersion lens) | G + c, + (1-9 bacteria per field of vision under oil-immersion lens) | G − c, − (No or less than one bacterium per field of version under oil-immersion lens) | Bacteria G − c (Gram-negative cocci), 48 hours-culture [11]: G − c, − (No or less than one bacterium per field of version under oil-immersion lens); Bacteria G + b (Gram-positive bacilli), 48 hours-culture [12]: G + b, +++ (About 100 bacteria or more per field vision under oil-immersion lens, even uncountable)
